In article PMC7744527, “The structure of SeviL, a GM1b/asialo-GM1 binding R-type lectin from the mussel Mytilisepta virgata” (Scientific Reports, 2020):
Like-named read-outs stand apart in the source and are kept apart here.

Assays:
SeviL [1] = target: T1, SeviL (Mytilisepta virgata, UniProt A0A646QV53); test: biochemical; format: binding
T1 construct: This vector directs expression of full-length SeviL carrying a thrombin-cleavable hexa-histidine tag; hexa-histidine tag (thrombin-cleavable; leaves residual GSH before the native Met) (N, cleaved yes); made in house; host or cells: E. coli BL21(DE3)
Procedure: (§1) Experimental details are given in Methods/Isothermal Titration Calorimetry. […] ITC experiments were repeated with the monomer mutant SeviL (Q12R/F126K). […] Errors in Kd for the native protein and monomer were determined from triplicate experiments. To produce a stronger signal and lower noise, further experiments were attempted with the concentrations of the native protein and ligand increased ten-fold. […] Different stereo views of the interaction between protein and ligand are shown in SFigure 11.
(§2) Figure 5 (A) A thermogram produced by injecting 1 mM asialo-GM1 saccharide into 50 μ M SeviL. The experiment was repeated three times, each thermogram being fitted to a one-site model (shown as a black line). Dissociation constants were calculated as weighted averages, and errors were calculated as weighted standard deviations, using the reciprocal chi-square values of each individual fit as weights.
Experiments were performed using a MicroCal iTC200 (GE) instrument. The sample of SeviL (in 50 mM phosphate buffer, pH 6.8, 0.1 M NaCl) was placed in the cell, and equilibrated at 298 K. The selected ligand was dissolved in the same buffer, and injected into the protein sample (with 20 injections of 10 μ L each), allowing the baseline to stabilise between injections. The data were analysed using the manufacturer’s software, assuming a simple single site model, to yield a Kd value and chi-square value from each experiment. […] Asialo-GM1 and GM1b were used at 1 mM concentration, each experiment being repeated three times, and errors were determined as the weighted standard deviation of these three values. Higher concentrations of protein and ligand were used in the case of these longer ligands.

SeviL [2] = target: T1, SeviL; settings: 52 oligosaccharides; cited from earlier work
SeviL (Q12R/F126K) = target: T2, SeviL (Q12R/F126K) (Mytilisepta virgata, UniProt A0A646QV53, F126K/Q12R); test: Isothermal titration calorimetry with monomer mutant SeviL (Q12R/F126K); format: binding; settings: 1 mM ligand titrated into 50 μM SeviL (Q12R/F126K), one-site model, triplicate
T2 construct: This vector directs expression of full-length SeviL carrying a thrombin-cleavable hexa-histidine tag; hexa-histidine tag (thrombin-cleavable); made in house; host or cells: E. coli BL21(DE3)
Procedure: as §1, §2
Experiments were performed using a MicroCal iTC200 (GE) instrument. […] The data were analysed using the manufacturer’s software, assuming a simple single site model, to yield a Kd value and chi-square value from each experiment. […] Asialo-GM1 and GM1b were used at 1 mM concentration, each experiment being repeated three times, and errors were determined as the weighted standard deviation of these three values. […]

[3] = target: the molecule itself; test: AUC; sedimentation velocity, 50,000 rpm, 293 K, 50 mM potassium phosphate pH 6.8, 0.1 M NaCl, absorbance at 280 nm, c(s)/c(M) analysis with SEDFIT; sample concentration printed as 1.0 ug/ml
human red cells = tested on: human red cells; parameters: method as in PMID 31769916; settings: in the presence of calcium; cited from earlier work
[4] = tested on: trypsinised and glutaraldehyde-fixed rabbit erythrocytes; test: Hemagglutination assay; format: cell-based; settings: 10 mM CaCl2, 0.25% Triton X-100, 1 h room temperature
Procedure: Figure 6 Hemagglutination of red blood cells by SeviL. 20 μ L of a two-fold dilution of SeviL (initially 10 mg/mL) were serially diluted and added to the same volume of a red cell suspension containing 0.25% Triton-X100 and 10 mM calcium chloride, and incubated for 1 h at room temperature. Appearance of a dot indicates no agglutination. The number over the wells indicates the protein dilution factor. Top row: dimer SeviL, middle row: dimer SeviL (D39H), and bottom row: monomer SeviL (Q12R/F126K). Column C is a negative control with no added lectin.
Hemagglutination assay was performed in 96-well U-shape plates as described previously. 20 μ L each protein (10 μ g/ml) in TBS was mixed with 20 μ L of a 1% suspension (with TBS; v/v) of trypsinised and glutaraldehyde-fixed rabbit erythrocytes in addition to 20 μ L of TBS containing 0.25% (w/v) Triton X-100 and 10 mM CaCl2. The plate was incubated at room temperature for 1 h, and the formation of a sheet (agglutination-positive) or dot (agglutination-negative) was observed and scored against the lectin titre.

[5] = tested on: mammalian carcinoma cells expressing asialo-GM1; parameters: method as in PMID 31769916; settings: cited from earlier work

## OC[C@H]1O[C@@H](O[C@H]2[C@H](O)[C@@H](O)C(O)O[C@@H]2CO)[C@H](O)[C@@H](O)[C@H]1O (mixture of isomers) [lactose]
SeviL [1]
  Kd: 8000 to 12000 µM

## OC[C@H]1OC(O)[C@H](O)[C@@H](O)[C@@H]1O (stereo partly drawn) [Glucose]
SeviL [1]; small sugar ligand
  interaction with the protein (ITC): not seen to interact with the protein at all

## CC(=O)NC1C(O)CC(OC2C(O)C(CO)OC(OC3C(O)C(CO)OC(OC4C(O)C(CO)OC(OC5C(CO)OC(OC6C(CO)OC(O)C(O)C6O)C(O)C5O)C4O)C3NC(C)=O)C2O)(C(=O)O)OC1C(O)C(O)CO (stereo not drawn) [SSEA-4, Neu5Ac α (2-3)Gal β (1-3)GalNAc β (1-3)Gal α (1-4)Gal β (1-4)Glc]
SeviL [2]
  binding in glycan array: weak binding

## CC(=O)N[C@H]1[C@H](O[C@@H]2[C@H](O)[C@@H](O)[C@H](O[C@H]3[C@H](O)[C@@H](O)C(O)O[C@@H]3CO)O[C@@H]2CO)O[C@H](CO)[C@H](O)[C@@H]1O[C@@H]1O[C@H](CO)[C@H](O)[C@H](O)[C@H]1O (stereo partly drawn) [asialo-GM1, Gal β (1-3)GalNAc β (1-4)Gal β (1-4)Glc]
SeviL (Q12R/F126K)
  Kd: 100 µM
SeviL [1]; 1 mM ligand injected into 50 μM SeviL, 298 K, pH 6.8, one-site model, triplicate, weighted average, read-out: Kd
  Kd: 100 µM
SeviL [1]; protein and ligand concentrations increased ten-fold (1 mM SeviL/10 mM asialo-GM1; 0.8 mM SeviL/12 mM GM1b), model of non-interacting sites, read-out: Kd (exothermic and endothermic binding site, each)
  Kd: ~100 µM
SeviL [2]
  binding in glycan array: bind

B1: SeviL (natural protein, Mytilisepta virgata)
chain: MSSVTIGKCYIQNRENGGRAFYNLGRKDLGIFTGKMYDDQIWSFQKSDTPGYYTIGRESKFLQYNGEQVIMSDIEQDTTLWSLEEVPEDKGFYRLLNKVHKAYLDYNGGDLVANKHQTESEKWILFKAY
notes: some N-terminal residues remain after removal of the histidine tag by thrombin; also called recombinant SeviL; wild-type SeviL; source: recombinant, expressed in bacteria, purified (details in Supplementary Information); not shown: histidine tag, N-terminal, cleaved
[3]
  stoichiometry N: 2

B2: SeviL: recombinant 129 residue dimeric β-trefoil R-type lectin from the mussel Mytilisepta virgata (protein)
chain: MSSVTIGKCYIQNRENGGRAFYNLGRKDLGIFTGKMYDDQIWSFQKSDTPGYYTIGRESKFLQYNGEQVIMSDIEQDTTLWSLEEVPEDKGFYRLLNKVHKAYLDYNGGDLVANKHQTESEKWILFKAY
modifications: left off: histidine tag, N-terminal, cleaved
notes: recombinant 129 residue dimeric β-trefoil R-type lectin from the mussel Mytilisepta virgata
Human red cells
  hemagglutination: cause hemagglutination
[4]
  hemagglutination: can trigger hemagglutination at low concentration
[5]
  effect on carcinoma cells: activates apoptotic pathways, causing cell death

B3: SeviL (Q12R/F126K): SeviL double mutant at the dimer interface, almost entirely monomeric, retains sugar binding (protein)
chain: MSSVTIGKCYIRNRENGGRAFYNLGRKDLGIFTGKMYDDQIWSFQKSDTPGYYTIGRESKFLQYNGEQVIMSDIEQDTTLWSLEEVPEDKGFYRLLNKVHKAYLDYNGGDLVANKHQTESEKWILKKAY
modifications: left off: histidine tag, N-terminal, cleaved
[4]
  hemagglutination: Hemagglutination is also lost
